Values quoted from earlier work, collected in patent US20090306209A1, “ENTERIC-COATED FORMULATIONS OF POLYETHYLENE GLYCOL AND ONE OR MORE SOLUBLE AMINO ACIDS FOR ORAL INGESTION AND ENHANCED UPTAKE OF SAME” (priority 2008, published 2009).
Like-named read-outs stand apart in the source and are kept apart here.

Conditions: for solubility in water (in words): temperature not stated

SMILES | solubility in water (in words) | further results
CC(C)C[C@H](N)C(=O)O.Cl [L-leucine.HCl] | very soluble in water | –
Cl.NC(=O)CC[C@H](N)C(=O)O [L-glutamine-HCl] | very soluble in water | –
NC(=O)CC[C@H](N)C(=O)O [L-glutamine] | – | solubility in water (water at 30° C.): 5 grams/100 ml
CC(C)C[C@H](N)C(=O)O [L-leucine] | – | solubility in water (water at 25° C.): 2.4 g/100 ml
